In patent US9468642B2, “Imidazopyrazines” (BAYER INTELLECTUAL PROPERTY GMBH, priority 2011, dated 2016):

Biological target: human kinase Mps-1 (Homo sapiens (Human), UniProt P33981)
Test: Mps-1 Kinase Assay (TR-FRET)
Assay type: biochemical
Conditions: N-terminally GST-tagged human full length recombinant Mps-1; 10 μM ATP; 1 μM peptide substrate; 60 min at 22° C.; read-out: Mps1 IC50
Protocol: The human kinase Mps-1 phosphorylates a biotinylated substrate peptide. Detection of the phosphorylated product is achieved by time-resolved fluorescence resonance energy transfer (TR-FRET) from Europium-labelled anti-phospho-Serine/Threonine antibody as donor to streptavidin labelled with cross-linked allophycocyanin (SA-XLent) as acceptor. Compounds are tested for their inhibition of the kinase activity.
N-terminally GST-tagged human full length recombinant Mps-1 kinase (purchased from Invitrogen, Karslruhe, Germany, cat. no PV4071) was used. As substrate for the kinase reaction a biotinylated peptide of the amino-acid sequence […] (C-terminus in amide form, purchased from Biosynthan GmbH, Berlin) was used.
The concentration of Mps-1 in the assay was adjusted to the activity of the enzyme lot and was chosen appropriate to have the assay in the linear range, typical enzyme concentrations were in the range of about 1 nM (final conc. in the 5 μl assay volume).
The resulting mixture was incubated 1 h at 22° C. to allow the binding of the phosphorylated peptide to the anti-phospho(Ser/Thr)-Europium-antibody. Subsequently the amount of phosphorylated substrate was evaluated by measurement of the resonance energy transfer from the Europium-labelled anti-phospho(Ser/Thr) antibody to the Streptavidin-XLent.

human kinase Mps-1, sequence (P33981 whole entry): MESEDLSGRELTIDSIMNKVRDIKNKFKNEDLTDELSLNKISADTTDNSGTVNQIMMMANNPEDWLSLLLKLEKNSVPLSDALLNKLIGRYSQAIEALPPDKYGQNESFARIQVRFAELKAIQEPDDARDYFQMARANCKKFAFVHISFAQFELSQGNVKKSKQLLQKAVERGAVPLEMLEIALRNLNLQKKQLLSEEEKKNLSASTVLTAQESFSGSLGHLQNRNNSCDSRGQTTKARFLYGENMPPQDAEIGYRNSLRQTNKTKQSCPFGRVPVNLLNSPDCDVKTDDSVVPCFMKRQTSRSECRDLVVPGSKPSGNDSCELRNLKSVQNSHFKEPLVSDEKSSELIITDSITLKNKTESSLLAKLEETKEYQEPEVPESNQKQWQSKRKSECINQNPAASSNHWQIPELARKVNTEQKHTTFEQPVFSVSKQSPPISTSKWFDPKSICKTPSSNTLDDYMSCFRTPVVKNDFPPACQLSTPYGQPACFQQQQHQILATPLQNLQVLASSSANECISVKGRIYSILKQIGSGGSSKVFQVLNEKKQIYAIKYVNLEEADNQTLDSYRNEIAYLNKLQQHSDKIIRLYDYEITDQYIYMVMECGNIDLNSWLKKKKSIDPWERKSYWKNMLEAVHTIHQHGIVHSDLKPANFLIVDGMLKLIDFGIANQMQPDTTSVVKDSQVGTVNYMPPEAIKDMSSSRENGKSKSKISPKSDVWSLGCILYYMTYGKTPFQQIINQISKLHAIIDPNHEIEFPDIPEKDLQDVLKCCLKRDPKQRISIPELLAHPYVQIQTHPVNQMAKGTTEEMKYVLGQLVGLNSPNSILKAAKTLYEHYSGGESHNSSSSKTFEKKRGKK

Question: For `O=C(NC1CC1)c1ccc(-c2cnc3c(SCCCCO)nc(-c4ccccc4)cn23)cc1` [Example 35, N-cyclopropyl-4-{8-[(4-hydroxybutyl)sulfanyl]-6-phenylimidazo[1,2-a]pyrazin-3-yl}benzamide], which IC50 is on record?
Answer: 3.7 nM

Question: `O=C(NC1CC1)c1ccc(-c2cnc3c(S(=O)(=O)CCCCO)nc(-c4ccccc4)cn23)cc1` [Example 36, N-cyclopropyl-4-{8-[(4-hydroxybutyl)sulfonyl]-6-phenylimidazo[1,2-a]pyrazin-3-yl}benzamide] was tested. Which IC50 did it give?
Answer: 5.1 nM

Question: How did the IC50 turn out when “(1R or 1S)-1-(4-{3-[4-(2-cyclopropyl-1H-imidazol-5-yl)phenyl]-8-(methylsulfanyl)imidazo[1,2-a]pyrazin-6-yl}phenyl)ethanol [Example 34B]” was run?
Answer: 58.2 nM

Question: How did the IC50 turn out when “(1S or 1R)-1-(4-{3-[4-(2-cyclopropyl-1H-imidazol-5-yl)phenyl]-8-(methylsulfanyl)imidazo[1,2-a]pyrazin-6-yl}phenyl)ethanol [Example 34C]” was run?
Answer: 95 nM
